Measurements from patent US8450400B2, “Polypropylene resin composition and molded article made thereof” (Sumitomo Chemical Company, Limited, priority 2007, dated 2013).

Experiment: Weight loss rate by thermogravimetric analysis (TG-DTA) to 300° C. under nitrogen
Type: physicochemical
Conditions: room temperature to 300° C. at 10° C./min, nitrogen gas atmosphere (100 ml/min)
Method: Regarding requirement (c), from the viewpoint of the staining of a mold, the emitted amount of VOC, and the weather resistance, the weight loss rate measured in a thermogravimetric analysis at a temperature of 300° C. under a nitrogen gas atmosphere preferably is less than 5% by weight, and more preferably is less than 3% by weight. The weight loss rate measured by the thermogravimetric analysis of a hindered amine light stabilizer (D) to be used for the present invention is a value determined by using a thermo gravimetry differential thermal analyzer (TG-DTA). Described concretely, it is a weight loss rate determined using a thermobalance when the temperature of a hindered amine light stabilizer (D) is increased from room temperature to 300° C. at a rate of 10° C. per minute under a nitrogen gas atmosphere (in a nitrogen flow at a flow rate of 100 ml/min).
From the viewpoint of inhibiting mold staining, the weight loss rate of the nonionic antistatic agent (E) to be used for the present invention measured by thermogravimetric analysis executed at a temperature of 300° C. under a nitrogen atmosphere preferably is less than 20% by weight, and more preferably 5 to 15% by weight. The weight loss rate is determined by the use of a thermo gravimetry differential thermal analyzer (TG-DTA). Described concretely, it is a weight loss rate determined using a thermobalance when the temperature of the nonionic antistatic agent (E) is increased from room temperature to 300° C. at a rate of 10° C. per minute under a nitrogen gas atmosphere (in a nitrogen flow at a flow rate of 100 ml/min).
The weight loss by thermogravimetric analysis (TG-DTA) of a light stabilizer was measured with a thermo gravimetry differential thermal analyzer from room temperature to 300° C. at a temperature increasing rate of 10° C./min under a nitrogen gas atmosphere (gas flow rate: 100 ml/min). […]

Weight loss rate by TG-DTA [% by weight] | Compound
19.6 | CC1(C)CC(OC(=O)CCCCCCCCC(=O)OC2CC(C)(C)NC(C)(C)C2)CC(C)(C)N1 [Example D-2, Bis(2,2,6,6-tetramethyl-4-piperidyl) sebacate]
31.6 | CC(C)(C)c1ccc(OC(=O)c2cc(C(C)(C)C)c(O)c(C(C)(C)C)c2)c(C(C)(C)C)c1 [Example D-3, 2,4-di-tert-butylphenyl 3,5-di-tert-butyl-4-hydroxybenzoate]
23.8 | Stearic acid monoglyceride [Example E-1]
